Measurements reported in patent US6794409B2, “Use of ERβ-selective ligands for regulating fertility and compounds useful therefor” (priority 2001, dated 2004).
Read-outs that look alike come from different tables or passages of the source.

Assays:
[1] = system: hypophysectomized immature female Wistar rats; experiment: Effect on late folliculogenesis and ovulation in hypophysectomized rats; type: in vivo, rat; details: hypex immature Wistar rats; 0.01, 0.1 and 1 mg/day s.c. for 4 days, then PMSG and hCG; FIG. 3
Protocol: Intact immature female Wistar rats were hypophysectomized (hypex) on day 24 of age (day 0). The following hormone treatments were initiated six days after surgery:
(§1) (a) hypex rats treated with vehicle (control group) (ethanol/arachisoil: 1+9 [v/v]) only
(b) hypex rats treated with 0.01, 0.1 and 1 mg 17β-estradiol/day
(c) hypex rats treated with 0.01, 0.1 and 1 mg of the ERα-selective compound B
(d) hypex rats treated with 0.01, 0.1 and 1 mg of the […] compound C
Animals were subcutaneously treated once per day for 4 consecutive days with the respective compounds or vehicle (day 6, 7, 8, 9). Number of animals per group were […]. The animals were randomly assigned to the treatment and vehicle (control) group.
One day after the last injection (day 10) animals were subcutaneously injected with 20 IU prgenant mare serum gonadotropin (PMSG). Two days later, at […], 10 IU human Chorionic Gonadotropin (hCG) were injected intraperitoneally in order to induce ovulation. At day 14 animals were weighed and sacrificed by carbon dioxide asphyxiation. The oviducts and ovaries were removed:
The oviducts were flushed with a M-2 medium and the oocytes per animal were counted after enzymatic disassociation from the surrounding cumulus with M-2 medium supplemented with 0.3% hyaluironidase. For each treatment group and control group the mean number of ovulated oocytes were calculated.
The ovaries were excised and weighed. Relative ovarian weights (in milligrams), defined as relative ovarian wet weights, were calculated per 100 g body weight for each animal. For each treatment group and control group the mean relativewet weights were determined.
The one way ANOVA was applied to the data in order to compare treatment group values with the respective control group.

[2] = system: hERβ; details: cited from earlier work
[3] = system: hypophysectomized immature female Wistar rats; experiment: Effect of ER-selective ligands on folliculogenesis in hypophysectomized rats; type: in vivo, rat; details: hypex immature Wistar rats
Excerpt: Intact immature female Wistar rats were hypophysectomized (hypex) on day 24 of age (d0). The following hormone treatments were initiated six days after surgery:
as §1
Animals were subcutaneously treated once per day for 4 consecutive days with the respective compounds or vehicle (day 6, 7, 8, 9). Number of animals per group were 5-6. The animals were randomly assigned to the treatment and vehicle (control) group.
One day after the last injection (day 10) animals were weighed and sacrificed by carbon dioxide asphyxiation. The ovaries were excised and weighed. Relative ovarian weights (in milligrams), defined as relative ovarian wet weights, were calculated per 100 g body weight for each animal. For each treatment group and control group the mean relative wet weights were determined. The one way ANOVA was applied to the data in order to compare treatment group values with the respective control group.
For histological evaluation, ovaries were placed in neutral buffered 3.7% formaldehyde solution. The ovaries were then embedded in paraffin, cut into 4 μm transverse sections, and stained with hematoxylin and eosin. Ovarian sections were then evaluated qualitatively for folliculogenesis.

[4] = system: intact immature female Wistar rats; experiment: Effect on ovulation rate after superovulation (PMSG/hCG) of immature rats; type: in vivo, rat
Protocol: Superovulation experiments were carried out in three groups of intact immature female Wistar rats on day 23 of age. Number of animals per group were 5. The animals were randomly assigned to the three groups.
Each animal received a single subcutaneous (s.c.) injection of 20 I.U. pregnant mare's serum gonadotropin (PMSG) at day 0. At the same time (day 0) as well as 24 hours and 48 hours later the animals were s.c. injected with
(a) the vehicle formulation (control group: ethanol/aracisoil: 1+9 [v/v]) (group 1) or
(b) an ERβ- selective antagonist 17-Chloro-17aα-(trifluoromethyl)-17a-homoestra-1,3,5(10)16-tetraene-3,17aβ-diol (compound E) at the dose of 1 mg/kg (group 2) and 10 mg/kg (group 3). 54 hours after the start of the experiment the animals got a single intraperitoneal (i.p.) injection of 10 I.U. human chorion gonadotropin (hCG). The animals were then killed 16 hours after the hCG injection.
The ovaries and oviducts were removed. The ovulated oocyte/cumulus mass was extracted from the oviduct by flushing the oviduct with M-2 medium and the oocytes per animal were counted after enzymatic disassociation from the surrounding cumulus with M-2 medium supplemented with 0.3% hyaluronidase.

[5] = system: estrogen receptor preparations from rat prostates; experiment: Competitive 3H-estradiol binding, rat prostate cytosol
Excerpt: (§2) In this case, it is assumed that ERβ predominates in the rat prostates over ERα, and ERα predominates in rat uteri over ERβ.

[6] = system: hERβ; experiment: Relative binding affinity to hERβ (Kuiper et al.); design: species or system human; details: quotient of RBA hERβ / hERα
Excerpt: as §2

[7] = system: estrogen receptor preparations from rat uteri; experiment: Competitive 3H-estradiol binding, rat uterus cytosol; details: 3H-estradiol as ligand, estradiol = 100
Excerpt: as §2

Compound: C=C[C@@]12CCc3cc(O)ccc3[C@H]1CC[C@@]1(C)[C@H]2CC[C@@H]1O [compound C, 8β-Vinyl-1,3,5(10)-estratriene-3,17β-diol]
- number of ovulated oocytes [1]: significantly increase the number of ovulated oocytes
- ovarian wet weight [1]: significantly increase

Compound: C[C@]12CC[C@@H]3c4ccc(O)cc4CC[C@H]3[C@@H]1C[C@@H](O)[C@@H]2O [Estriol]
- hERβ RBA ([2]; relative binding affinity, estradiol = 100): 21

Compound: C[C@]12CC[C@@H]3c4ccc(O)cc4CC[C@H]3[C@@H]1C[C@H]1OC(=O)C[C@]12O [compound B, 3,17β-Dihydroxy-19-nor-17α-pregna-1,3,5(10)-triene-21,16α-lactone]
- ovarian wet weight ([3]; 0.01, 0.1 and 1 mg/day s.c. for 4 days, FIG. 1): not able to stimulate ovarian growth
- folliculogenesis, histological evaluation of ovaries ([3]; s.c. for 4 days, hematoxylin and eosin sections, FIG. 2): many small atretic follicles comparable to the vehicle control group
- number of ovulated oocytes [1]: not able to significantly stimulate
- ovarian wet weight [1]: not able to significantly stimulate

Compound: CC12CCC3c4ccc(O)cc4CCC3C1CC=C(Cl)C2(O)C(F)(F)F (stereo not drawn) [compound E, 17-Chloro-17aα-(trifluoromethyl)-17a-homoestra-1,3,5(10)16-tetraene-3,17aβ-diol]
- Ovulation rate (ova/rat) [x ± sd] ([4]; 1 mg/kg/day × 3 days s.c., group 2): 11 ± 5.6 ova/rat
- Ovulation rate (ova/rat) [x ± sd] ([4]; 10 mg/kg/day × 3 days s.c., group 3): 8 ± 7.2 ova/rat
- Ovulation rate (ova/rat) [x ± sd] ([4]; 10 mg/kg/day × 3 days s.c., group 3, listed as ERβ-specific antagonist): 8.0 ova/rat

Compound: C[C@]12CC[C@H]3[C@@H](CC=C4C[C@@H](O)CC[C@@]43C)[C@@H]1CC[C@@H]2O [5-Androstenediol]
- Rat prost. ER(RBA) ([5]; rat prostate cytosol, 3H-estradiol as ligand, estradiol = 100): 5
- prost. ER/uterus ER ([5]; ratio of RBA rat prostate ER / rat uterus ER): 50
- ERβ/ERα [6]: 3
- hERβ RBA [2]: 17
- Rat uterus ER(RBA) [7]: 0.1
